Results taken from the Deep4Chem optical property database.
Each block holds one compound with its values, some of them ahead of it.

Assay: solvent given as SMILES

absorption maximum (in CCO): 362 nm
Structure (SMILES): C#Cc1ccc2ccc3oc(=O)cc(C)c3c2c1

Structure (SMILES): O=c1c2cc(-n3c4ccccc4c4ccccc43)ccc2sc2ccc(-n3c4ccccc4c4ccccc43)cc12
absorption maximum (in C1CCOC1): 408 nm | absorption maximum (in CCCCCC): 408 nm | absorption maximum (in Cc1ccccc1): 408 nm | absorption maximum (in ClC(Cl)Cl): 408 nm | absorption maximum (in ClCCl): 408 nm

absorption maximum (in O): 458 nm
Structure (SMILES): NNC(=O)N1C(=O)c2cc(S(=O)(=O)[O-])cc3c(N)c(S(=O)(=O)[O-])cc(c23)C1=O

Structure (SMILES): F[B-]1(F)n2c(c3cccc4cccc2c43)=Nc2cccc(Cl)[n+]21
absorption maximum (in C1CCOC1): 476 nm | absorption maximum (in CC#N): 470 nm | absorption maximum (in CCCCCC): 481 nm | absorption maximum (in Cc1ccccc1): 481 nm | absorption maximum (in ClCCl): 447 nm

absorption maximum (in ClCCl): 376 nm
Structure (SMILES): COc1ccc(/C=C/c2cc(/C=C/c3ccc(OC)cc3)nc(/C=C/c3ccc(N(c4ccccc4)c4ccccc4)cc3)n2)cc1

absorption maximum (in CN(C)C=O): 349 nm
Structure (SMILES): c1ccc2[nH]c(-c3ccc(-c4ccc(-c5ccc(-c6nc7ccccc7[nH]6)cc5)cc4)cc3)nc2c1

absorption maximum (in ClCCl): 357 nm
Structure (SMILES): O=Cc1ccc(C2=Cc3ccccc3P2(=O)c2ccccc2)cc1 (stereo unspecified)

absorption maximum (in ClCCl): 491 nm
Structure (SMILES): Cc1ccc2nc3cc4c5c(cccc5c3nc2c1)C(c1ccccc1)=C(c1ccccc1)O4

Structure (SMILES): CCCCCCCCCCCCOc1ccc(C#Cc2ccc(C#Cc3ccc(OCCCCCCCCCCCC)c(OCCCCCCCCCCCC)c3)c3nc4c5ccccc5c5ccccc5c4nc23)cc1OCCCCCCCCCCCC
absorption maximum (in C1CCOC1): 461 nm | absorption maximum (in Cc1ccccc1): 461 nm | absorption maximum (in ClCCl): 461 nm

absorption maximum (in CCO): 572 nm | absorption maximum (in ClCCl): 581 nm | absorption maximum (in O): 581 nm
Structure (SMILES): CC[N+](CC)=c1ccc2c(-c3ccccc3C(=O)O)c3oc4cc(N)ccc4c3oc-2c1

absorption maximum (in ClCCl): 364 nm
Structure (SMILES): C(#Cc1cc(C#Cc2ccccc2)c(C#Cc2ccccc2)c(C#Cc2ccccc2)c1C#Cc1ccccc1)c1ccccc1

Structure (SMILES): CC1(C)c2ccccc2N2c3ccccc3C3(c4cc(C#N)ccc4-c4ccc(C#N)cc43)c3cccc1c32
absorption maximum (in Cc1ccccc1): 327.78 nm

absorption maximum (in CC#N): 394 nm | absorption maximum (in CO): 399 nm | absorption maximum (in ClCCl): 393 nm
Structure (SMILES): Cc1ccc(O)c(-c2[nH]c(=O)n3c2-c2ccccc2C3=O)c1

Structure (SMILES): CCCCCCCCc1ccc(-n2c3c4ccccc4nnc3c3c2c2nnc4ccccc4c2n3-c2ccc(CCCCCCCC)cc2)cc1
absorption maximum (in Cc1ccccc1): 316 nm

absorption maximum (in CO): 629 nm | absorption maximum (in CS(C)=O): 641 nm | absorption maximum (in O): 633 nm
Structure (SMILES): CCCN1/C(=C/C=C(/C=C/C2=[N+](CCC)c3ccccc3C2(C)C)c2ccc3ccccc3n2)C(C)(C)c2ccccc21

absorption maximum (in ClC(Cl)Cl): 522 nm
Structure (SMILES): C(#Cc1ccncc1)C(C#Cc1ccncc1)=Cc1ccc(C=C(C#Cc2ccncc2)C#Cc2ccncc2)s1

absorption maximum (in ClCCl): 561 nm
Structure (SMILES): CC(C)[Si](C#Cc1c2nsnc2c(C#C[Si](C(C)C)(C(C)C)C(C)C)c2nc3c4ccccc4c(=O)c4ccccc4c3nc12)(C(C)C)C(C)C

Structure (SMILES): CC1(C)c2ccccc2N(c2ccc(-c3cnc(C#N)nc3)cc2)c2ccccc21
absorption maximum (in Cc1ccccc1): 384 nm

absorption maximum (in ClCCl): 394 nm
Structure (SMILES): F[B-]12OC(c3ccccc3)=Nc3cccc([n+]31)N=C(c1ccccc1)O2

absorption maximum (in C1CCCCC1): 424 nm | absorption maximum (in C1CCOC1): 425 nm | absorption maximum (in CC#N): 423 nm
Structure (SMILES): Cc1ccc2nc3c(nc2c1)c(-c1ccccc1)nn3C

absorption maximum (in CC#N): 340 nm | absorption maximum (in CCCCOCCCC): 341 nm | absorption maximum (in CO): 340 nm
Structure (SMILES): COc1nc(Nc2ccc3ccc4cccc5ccc2c3c45)nc(OC)n1

Structure (SMILES): CCC1(CC)c2cc(C=O)ccc2-c2ccc(N(C)C)cc21
absorption maximum (in C1CCCCC1): 385 nm | absorption maximum (in CC#N): 385 nm | absorption maximum (in CCO): 388 nm | absorption maximum (in CCOCC): 379 nm | absorption maximum (in CS(C)=O): 395 nm | absorption maximum (in ClCCl): 392 nm | absorption maximum (in c1ccccc1): 388 nm

absorption maximum (in C1CCOC1): 328 nm | absorption maximum (in CCCCCC): 328 nm | absorption maximum (in CCO): 328 nm | absorption maximum (in CS(C)=O): 330 nm
Structure (SMILES): Cc1ccc(-c2cc3ccccc3oc2=O)cc1

absorption maximum (in CC#N): 385 nm | absorption maximum (in ClCCCl): 395 nm
Structure (SMILES): c1ccc(-c2cc3c(oc4ccccc43)c(-c3ccccc3)[o+]2)cc1

Structure (SMILES): O=C1OC(=O)C2=C1[Se][C@]13C2=C[C@H](c2ccccc21)c1ccccc13
absorption maximum (in ClCCl): 421 nm

Structure (SMILES): CCN1c2ccc(/C=N/Nc3ccccn3)cc2Sc2cc(-c3ccccc3)ccc21
absorption maximum (in C1CCOC1): 379 nm | absorption maximum (in CS(C)=O): 387 nm | absorption maximum (in Cc1ccccc1): 382 nm | absorption maximum (in ClCCl): 384 nm

absorption maximum (in ClC(Cl)Cl): 366 nm
Structure (SMILES): CCC1(CC)c2cc(-c3ccc(N(c4ccc(-c5ccc6c(c5)C(CC)(CC)c5cc(N7c8ccccc8C(C)(C)c8ccccc87)ccc5-6)cc4)c4ccc(-c5ccc6c(c5)C(CC)(CC)c5cc(N7c8ccccc8C(C)(C)c8ccccc87)ccc5-6)cc4)cc3)ccc2-c2ccc(N3c4ccccc4C(C)(C)c4ccccc43)cc21

absorption maximum (in ClCCl): 458 nm
Structure (SMILES): C[Si]1(C)c2cc(-c3ccc(-c4cccs4)s3)ccc2C=Cc2ccc(-c3ccc(-c4cccs4)s3)cc21

absorption maximum (in C1CCOC1): 398 nm
Structure (SMILES): C[Si]1(c2ccccc2)C(c2ccc3c4ccccc4n(-c4ccccc4)c3c2)=C(c2ccccc2)C(c2ccccc2)=C1c1ccc2c3ccccc3n(-c3ccccc3)c2c1

absorption maximum (in ClCCl): 445 nm
Structure (SMILES): Cc1ccc(/C=C/c2nc(-c3ccc([N+](=O)[O-])cc3)[nH]c2/C=C/c2ccc(C)cc2)cc1

absorption maximum (in CS(C)=O): 398 nm | absorption maximum (in O): 385 nm
Structure (SMILES): O=c1c2ccccc2[nH]c2ccccc12

absorption maximum (in CCO): 440 nm
Structure (SMILES): CC1(C)Nc2cc3nc4cc(F)c(F)cc4nc3cc2N1

absorption maximum (in O): 350 nm
Structure (SMILES): NC(=O)C1=CN([C@H]2C[C@H](O)[C@@H](COP(=O)([O-])OP(=O)([O-])OC[C@H]3O[C@@H](n4cnc5c(N)ncnc54)C[C@@H]3O)O2)C=CC1

absorption maximum (in C1CCOC1): 748 nm
Structure (SMILES): CCCCCCOc1ccc2c(c1)C1=[N+]3C2=Cc2c4ccc(OCCCCCC)cc4c4n2[B-]3(Oc2ccccc21)Oc1ccccc1-4 (stereo unspecified)

absorption maximum (in ClCCl): 392 nm
Structure (SMILES): CC(C)(C)NC(=O)c1ccc2ccc3cccc4c3c2c1c1c2ccccc2c2ccccc2c41

absorption maximum (in CC#N): 234 nm | absorption maximum (in CCCCCC): 238 nm
Structure (SMILES): Cc1ccc(-n2c(C)ccc2C)cc1

absorption maximum (in ClCCl): 336 nm
Structure (SMILES): Fc1ccc(-c2cccc3ncc(-c4ccccc4)n23)cc1

absorption maximum (in C1CCCCC1): 299 nm
Structure (SMILES): C=Cc1cc(OC)cc(OC)c1

Structure (SMILES): CCn1c2ccccc2c2cc(/C=C/c3cccc(/C=C/c4ccc5c(c4)c4ccccc4n5CC)[n+]3CCCS(=O)(=O)[O-])ccc21
absorption maximum (in C1CCOC1): 460 nm | absorption maximum (in CC#N): 454 nm | absorption maximum (in CC(C)=O): 458 nm | absorption maximum (in Cc1ccccc1): 453 nm

absorption maximum (in ClCCl): 273 nm
Structure (SMILES): COC(=O)c1c(-c2cc3ccccc3oc2=O)nn(-c2cccc(Cl)c2)c1C(=O)OC

absorption maximum (in ClCCl): 427 nm
Structure (SMILES): CCCCCCCCCCCCN1C(=O)c2c(c3ccc4cc(-c5ccc(C#N)cc5)c(OC)cc4c3c3c2ccc2cc(-c4ccc(C#N)cc4)c(OC)cc23)C1=O

absorption maximum (in CCO): 600 nm | absorption maximum (in O): 600 nm
Structure (SMILES): CC/[NH+]=c1\cc2oc3cc(NCCC(=O)NC(CCC(=O)OC)C(=O)OC)c4ccccc4c3nc-2cc1C (stereo unspecified)

absorption maximum (in CO): 360.54 nm
Structure (SMILES): CCC1(CC)c2cc(-c3ccc(C(C)(C)C)cc3)ccc2-c2ccc(-c3ccc4c(c3)C(CC)(CC)c3cc(-c5ccc6c(c5)C(CC)(CC)c5cc(-c7ccc(C(C)(C)C)cc7)ccc5-6)ccc3-4)cc21

absorption maximum (in CCO): 354 nm
Structure (SMILES): O=C(c1cc(F)c(N2CCCCC2)cc1F)c1cc(F)c(N2CCCCC2)cc1F

absorption maximum (in C1CCOC1): 354 nm | absorption maximum (in CC#N): 352 nm | absorption maximum (in CCCCCC): 352 nm
Structure (SMILES): CC1=N/C(=C\c2cccc(N(C)C)c2)C(=O)N1CCO

absorption maximum (in ClCCl): 430 nm
Structure (SMILES): CCCCCCCCCCCCN1C(=O)c2c(c3ccc4cc(-c5ccc(Cl)cc5)c(OC)cc4c3c3c2ccc2cc(-c4ccc(Cl)cc4)c(OC)cc23)C1=O

Structure (SMILES): O=c1cc(COc2ccc(I)cc2)c2c(ccc3ccccc32)o1
absorption maximum (in C1CCOC1): 349 nm | absorption maximum (in C1COCCO1): 348 nm | absorption maximum (in CC#N): 348 nm | absorption maximum (in CC(C)=O): 349 nm | absorption maximum (in CCCCO): 350 nm | absorption maximum (in CCCO): 350 nm | absorption maximum (in CCO): 350 nm | absorption maximum (in CCOC(C)=O): 348 nm | absorption maximum (in CN(C)C=O): 350 nm | absorption maximum (in CO): 348 nm | absorption maximum (in Cc1ccccc1): 350 nm | absorption maximum (in ClCCl): 349 nm

absorption maximum (in CC#N): 438 nm
Structure (SMILES): C(=C\N1CCCC1)/c1nc2ccccc2nc1-c1ccccc1

absorption maximum (in CC#N): 370 nm | absorption maximum (in CCO): 325 nm | absorption maximum (in CN(C)C=O): 323 nm | absorption maximum (in CS(C)=O): 325 nm | absorption maximum (in ClCCl): 376 nm
Structure (SMILES): c1ccc(-c2csc(-c3ccncc3)n2)cc1

absorption maximum (in C1CCOC1): 367 nm
Structure (SMILES): N#Cc1ccc(/C=C/C(F)(F)F)c(N)c1

absorption maximum (in CC#N): 510 nm | absorption maximum (in CCCCCC): 513 nm | absorption maximum (in CCOC(C)=O): 512 nm | absorption maximum (in CO): 511 nm | absorption maximum (in ClCCl): 515 nm
Structure (SMILES): COC1=[N+]2C(=C(c3ccccc3)c3ccc(OC)n3[B-]2(F)F)C=C1

absorption maximum (in CC1CCCCC1): 327 nm | absorption maximum (in CC#N): 312 nm | absorption maximum (in CO): 313 nm
Structure (SMILES): COC(=O)C(NC(=O)OC(C)(C)C)c1ccc2oc(-c3cc(OC)c(OC)c(OC)c3)nc2c1 (stereo unspecified)

absorption maximum (in ClC(Cl)Cl): 434 nm
Structure (SMILES): Cc1cccc(C2=Cc3c4ccccc4c4ccccc4[n+]3[B-](F)(F)O2)c1

Structure (SMILES): COc1ccc(N(c2ccc(C=C(c3ccccc3)c3ccccc3)cc2)c2ccc(OC)cc2)cc1
absorption maximum (in Cc1ccccc1): 376 nm

absorption maximum (in CC#N): 446 nm
Structure (SMILES): Cc1cc(C)c2nc3c(=O)n(C)c(=O)nc-3n(C)c2c1

Structure (SMILES): c1ccc(-c2nn(-c3ccccc3)c3nc4ccc(N(c5ccccc5)c5ccccc5)cc4cc23)cc1
absorption maximum (in C1CCCCC1): 452.08 nm | absorption maximum (in C1CCOC1): 450.05 nm | absorption maximum (in CC#N): 447.03 nm | absorption maximum (in CC(C)=O): 448.03 nm | absorption maximum (in CCCCCl): 451.06 nm | absorption maximum (in CCCCOCCCC): 451.06 nm | absorption maximum (in CN(C)C=O): 450.05 nm

absorption maximum (in CC#N): 400 nm | absorption maximum (in ClCCl): 404 nm
Structure (SMILES): COC(=O)c1cc(=O)n(C)c2cc(-c3ccc4c(c3)OCO4)sc12
